Where a chain is given by its changes, count along the chain named. Like-named read-outs stand apart in the source and are kept apart here.

We go through 1 molecule from paper PMC10296061, “Inhibition of the Mitochondrial Carnitine/Acylcarnitine Carrier by Itaconate through Irreversible Binding to Cysteine 136: Possible Pathophysiological Implications” (Biomolecules, 2023).

Common to all, as to format: biochemical
In one test the target is T1, recombinant CAC (WT) (Rattus norvegicus, UniProt P97521).
T1 construct: made in house; host or cells: E. coli C0214
T1 sequence (P97521 1-301): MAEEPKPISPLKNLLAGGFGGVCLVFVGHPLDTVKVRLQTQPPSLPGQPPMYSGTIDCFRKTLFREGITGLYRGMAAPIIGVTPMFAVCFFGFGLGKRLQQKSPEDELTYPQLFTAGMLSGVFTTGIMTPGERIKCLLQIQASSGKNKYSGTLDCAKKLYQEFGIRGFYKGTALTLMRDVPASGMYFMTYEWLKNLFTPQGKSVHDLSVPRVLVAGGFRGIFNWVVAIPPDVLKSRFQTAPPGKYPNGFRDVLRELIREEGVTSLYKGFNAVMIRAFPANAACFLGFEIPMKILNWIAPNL
The test is described as follows: [3H]carnitine/carnitine antiport in proteoliposomes reconstituted with recombinant WT CAC. On the procedure: (§1) As previously described, the pMW7-WTratCAC recombinant plasmid was used for over-expressing the rat CAC [22]. The overlap extension method was used to introduce the mutations; in the main time, NdeI and HindIII restriction sites were also added using appropriate primers. The PCR products were purified by the QIAEX II Gel Extraction Kit (QIAGEN) and digested with NdeI and HindIII and then ligated into the pMW7. All mutations were verified by DNA sequencing. The resulting plasmid constructs were transformed into E. coli C0214. Overexpression, inclusion body fraction preparation, and purification of the CAC proteins were performed as previously described.
As previously described, recombinant CAC (WT and mutants) and ORC1 proteins were used for proteoliposome formation. For experiments with native CAC, ORC1, or ANT proteins, rat liver mitochondria, or HeLa cell mitochondria, the latter for the CAC alone, were first purified using the standard procedure of cell disruption and differential centrifugation. Then proteins were extracted using 3% Triton X-100 and reconstituted as described for the recombinant proteins. The concentration of intraliposomal carnitine and ornithine was 15 mM and 30 mM, respectively, in all samples.
To test the transport activity of the CAC, 550 μL of proteoliposomes was passed through a Sephadex G-75 column to remove the external substrate. Six hundred μL of the turbid eluate was collected, divided into samples of 100 μL each, and used for transport measurement by the inhibitor-stop method. Transport was started by adding 0.1 mM [^3H]carnitine ([^3H]ornitine or [^3H]ATP) to proteoliposome samples and stopped with 1.5 mM NEM (N-ethylmaleimide) at the indicated time interval. In the control samples, NEM was added with the labeled substrate at time zero. Transport rates were measured in 10 min, i.e., within the initial linear range of the time course, at 25 °C. After terminating the transport reaction, the external substrate was removed by chromatography on the Sephadex G-75 column, and the intraliposomal radioactivity was measured. The experimental values were corrected by subtracting the controls.
Figure 1 Effect of itaconate on the native and recombinant mitochondrial carnitine/acylcarnitine (CAC). Dose–response analysis for itaconate inhibition was carried out using proteoliposomes reconstituted with native (○) or recombinant (●) CAC carriers. After 10 min of itaconate incubation, transport activity was started by adding 0.1 mM [^3H]carnitine and stopped after 10 min as described in Section 2. Percent of residual activity with respect to the control, without itaconate treatment, was reported. The values are the means ± SD from three independent experiments.
Figure 2 Effect of different pH on the inhibition of CAC protein by itaconate. (a) Proteoliposomes reconstituted with the recombinant CAC were incubated at various pHs (range pH 6.5–8.5) for 10 min with 10 mM itaconate. (b) Dose–response analysis of inhibition by itaconate of the recombinant CAC at pH 6.5. was performed. Proteoliposomes were incubated for 10 min at pH 6.5 with itaconate at the indicated concentrations. In both (a,b), the transport activity was measured for 10 min by adding to proteoliposomes 0.1 mM [^3H]carnitine.

Test [1] concerns the target T2, CAC C23V/C58V/C89S/C155V/C283S mutant (Rattus norvegicus, UniProt P97521, C155V/C23V/C283S/C58V/C89S).
T2 construct: made in house; host or cells: E. coli C0214
T2 sequence (P97521 1-301 C23V/C58V/C89S/C155V/C283S): T1 sequence (P97521 1-301) with C23V, C58V, C89S, C155V, C283S
The test is described as follows: Transport assay in proteoliposomes, CAC mutant containing the sole C136. The note with it: read-out: IC50 for itaconate inhibition. On the procedure: as §1, with “described. […]” for “described.”
(§2) To test the transport activity of the CAC, 550 μL of proteoliposomes was passed through a Sephadex G-75 column to remove the external substrate. […] Transport rates were measured in 10 min, i.e., within the initial linear range of the time course, at 25 °C. After terminating the transport reaction, the external substrate was removed by chromatography on the Sephadex G-75 column, and the intraliposomal radioactivity was measured. […]
(§3) Figure 3 Identification of residue responsible for itaconate inhibition. […] Transport activity of the WT (○), C136A (●), C155A (Δ), C23V/C58V/C89S/C155V/C283S (▲), and C23V/C58V/C89S/C136V/C155V/C283S (□) was measured by adding 0.1 mM [^3H]carnitine after treatment by itaconate at the indicated concentrations. […]

A further test concerns the target T3, CAC C136A mutant (Rattus norvegicus, UniProt P97521, C136A).
T3 construct: made in house; host or cells: E. coli C0214
T3 sequence (P97521 1-301 C136A): T1 sequence (P97521 1-301) with C136A
The test is described as follows: Transport assay in proteoliposomes, CAC mutant C136A. As to conditions: mutant lacking C136; read-out: IC50 for itaconate inhibition. As to the method: as §1, with “described. […]” for “described.”
as §2, §3

Turning to `C=C(CC(=O)O)C(=O)O` [itaconate], the “reversal of inhibition by the reducing agent DTE” value on recombinant CAC (WT) (10 mM itaconate pre-incubation 10 min, 25 mM DTE, transport 30 min) was “not able to reverse the inhibition”. The inhibition at 10000 µM on recombinant CAC (WT) (10 mM itaconate, 10 min, pH 6.5, read-out: inhibition of transport) is roughly 80%; at recombinant CAC (WT) (10 mM itaconate, pH 7.0, 10 min, without carnitine, unreacted compound removed by G-75, read-out: inhibition compared to the control), roughly 55%. Also, the inhibition of transport result at recombinant CAC (WT) (10 mM itaconate, 10 min, pH 8.0 and pH 8.5) is listed as “Virtually no inhibition”. Further, the type of inhibition result on recombinant CAC (WT) (WT, double reciprocal plot) is reported as “non-competitive inhibition”. Further, the Ki at recombinant CAC (WT) (pH 7.0, 10 mM itaconate, Lineweaver-Burk plot) worked out at 14 ± 2.6 mM. Further, the half-inhibitory concentration (IC50) on recombinant CAC (WT) (recombinant CAC, 10 min incubation, 0.1 mM [3H]carnitine, pH 7.0, read-out: IC50 for itaconate inhibition of transport) stood at 8.4 ± 2.9 mM; on recombinant CAC (WT) (recombinant WT CAC, pH 6.5, 10 min incubation, read-out: IC50 for inhibition of transport at pH 6.5), 3.8 ± 1 mM; in test [1] it was 4 ± 0.14 mM; at CAC C136A mutant it was 15 ± 2.1 mM.
